According to PubChem BioAssay (NCI):
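48-hour exposure; five concentrations; linearly interpolated endpoints. TGI denotes the concentration required for complete inhibition of growth.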

Legend:
Assay in all cases: NCI tumour cell line growth inhibition, 48 h
[1] = tested on: RXF 393 renal
[2] = tested on: KM12 colon
[3] = tested on: NCI/ADR-RES ovarian
[4] = tested on: MDA-N
[5] = tested on: ACHN renal
[6] = tested on: A549 NSCLC
[7] = tested on: MALME-3M melanoma
[8] = tested on: NCI-H226 lung
[9] = tested on: SF-268 CNS
[10] = tested on: SK-MEL-28 melanoma

For `COc1cccc(NC(=O)CC(=O)NN)c1`, the TGI [1] was greater than 100 µM, the TGI [2] was greater than 100 µM and the TGI [3] was greater than 100 µM. It also gave a TGI [4] greater than 100 µM, a TGI [5] greater than 100 µM and a TGI [6] greater than 100 µM. It also gave a TGI [7] greater than 100 µM, a TGI [8] greater than 100 µM and a TGI [9] greater than 100 µM. For the same compound, the TGI [10] was greater than 100 µM.
`C/C(=C\C(=O)Nc1ccc2n[nH]nc2c1)Nc1ccc2n[nH]nc2c1` showed a TGI [1] greater than 100 µM, a TGI [2] greater than 100 µM and a TGI [5] greater than 100 µM. It also gave a TGI [6] greater than 100 µM, a TGI [7] greater than 100 µM and a TGI [8] greater than 100 µM. For the same compound, the TGI [9] was greater than 100 µM and the TGI [10] was greater than 100 µM.
`CC1=NN(c2nc(N)nc(CO)n2)C(C)(C)C1` was tested, and the TGI [1] was greater than 100 µM, the TGI [2] was greater than 100 µM and the TGI [3] was greater than 100 µM. For the same compound, the TGI [5] was greater than 100 µM, the TGI [6] was greater than 100 µM and the TGI [8] was greater than 100 µM. The TGI [9] was greater than 100 µM and the TGI [10] was greater than 100 µM.
Compound `CCOC(=O)C(O)(CC1=NC(C(=O)OC)(C(=O)OC)C(c2cccc(C=O)c2)O1)C(=O)OCC` (stereo not given) has a TGI [1] greater than 100 µM, a TGI [2] greater than 100 µM and a TGI [3] greater than 100 µM. It also gave a TGI [4] greater than 100 µM, a TGI [5] greater than 100 µM and a TGI [6] greater than 100 µM. The TGI [8] was greater than 100 µM and the TGI [10] was greater than 100 µM.
Compound `CCOC(=O)Cc1c(C(=O)OCC)[n+](=O)c2cc(Cl)c(Cl)cc2n1[O-]` has a TGI [1] of 4.91 µM, a TGI [2] of 2.95 µM and a TGI [3] of 8.61 µM. It also gave a TGI [4] of 11.9 µM, a TGI [5] of 3.38 µM and a TGI [6] of 3.72 µM. It also gave a TGI [7] of 3.21 µM, a TGI [9] of 7.87 µM and a TGI [10] of 17.4 µM.
With `Cc1ccc(C2=CC(=O)/C(=C\C(=O)c3ccc(Br)cc3)O2)c(C)c1` the TGI [1] was 14.1 µM, the TGI [2] was 48.6 µM and the TGI [3] was 29.4 µM. It also gave a TGI [4] of 19.9 µM, a TGI [5] of 12.3 µM and a TGI [6] of 48.4 µM. For the same compound, the TGI [7] was 21.3 µM, the TGI [8] was 30.8 µM and the TGI [9] was 31.5 µM. For the same compound, the TGI [10] was 40.1 µM.
With `C[N+]1(C)CCCC(C#N)(c2ccccc2)CC1` (stereo not given) the TGI [1] was greater than 100 µM, the TGI [2] was greater than 100 µM and the TGI [3] was greater than 100 µM. For the same compound, the TGI [4] was greater than 100 µM, the TGI [5] was greater than 100 µM and the TGI [6] was greater than 100 µM. The TGI [7] was greater than 100 µM, the TGI [9] was greater than 100 µM and the TGI [10] was greater than 100 µM.
`Cc1c2cc[n+](Cc3ccc(I)cc3)cc2c(C)c2c1[nH]c1ccccc12` gave a TGI [1] greater than 25 µM, a TGI [2] of 1.83 µM and a TGI [3] greater than 25 µM. For the same compound, the TGI [6] was greater than 25 µM, the TGI [7] was 1.81 µM and the TGI [8] was 5.27 µM. It also gave a TGI [9] of 7.18 µM and a TGI [10] of 11.7 µM.
Work on `Cc1ccc(/C=c2\cc3oc(=O)c4cccc(c4-3)c2=O)cc1` yielded a TGI [3] greater than 100 µM, a TGI [5] greater than 100 µM and a TGI [7] greater than 100 µM. It also gave a TGI [9] greater than 100 µM and a TGI [10] greater than 100 µM.
`CN(C)C(=O)C(F)(F)C(c1ccccc1)C1C(=O)N(C)C(=O)N(C)C1=O` (stereo not given) gave a TGI [1] greater than 100 µM, a TGI [2] greater than 100 µM and a TGI [3] greater than 100 µM. The TGI [5] was greater than 100 µM, the TGI [6] was greater than 100 µM and the TGI [8] was greater than 100 µM. It also gave a TGI [9] greater than 100 µM and a TGI [10] greater than 100 µM.
In the case of `O/N=C\c1c2c(cc3c1CCC3)CCC2`, the TGI [2] is reported as greater than 100 µM, the TGI [3] is reported as greater than 100 µM and the TGI [4] is reported as greater than 100 µM. It also gave a TGI [5] greater than 100 µM, a TGI [6] greater than 100 µM and a TGI [7] greater than 100 µM. The TGI [8] was greater than 100 µM, the TGI [9] was greater than 100 µM and the TGI [10] was greater than 100 µM.
`O=C(NNC(=O)c1ccco1)c1ccco1` gave a TGI [1] greater than 100 µM, a TGI [2] greater than 100 µM and a TGI [3] greater than 100 µM. The TGI [4] was greater than 100 µM, the TGI [6] was greater than 100 µM and the TGI [7] was greater than 100 µM. For the same compound, the TGI [8] was greater than 100 µM, the TGI [9] was greater than 100 µM and the TGI [10] was greater than 100 µM.
Work on `ClC1=NSSC1(Cl)Cl` yielded a TGI [1] greater than 100 µM, a TGI [2] greater than 100 µM and a TGI [3] greater than 100 µM. It also gave a TGI [4] of 62.1 µM, a TGI [5] of 39.5 µM and a TGI [6] greater than 100 µM. For the same compound, the TGI [7] was greater than 100 µM and the TGI [8] was greater than 100 µM.
Compound `C[C@]12CC[C@H]3[C@@H](CC=C4C[C@@H](O)CC[C@@]43C)[C@@H]1C/C(=C\c1cccnc1)[C@@H]2O` has a TGI [1] of 80.2 µM, a TGI [2] greater than 100 µM and a TGI [3] greater than 100 µM. For the same compound, the TGI [4] was greater than 100 µM, the TGI [5] was 32.2 µM and the TGI [6] was greater than 100 µM. The TGI [7] was greater than 100 µM, the TGI [8] was 57.4 µM and the TGI [10] was greater than 100 µM.
In the case of `COC(=O)c1ccccc1CC1Cc2c(C)ccc(C)c2C1=O` (stereo not given), the TGI [1] is reported as 51 µM, the TGI [2] is reported as 76.1 µM and the TGI [3] is reported as 70.9 µM. The TGI [5] was greater than 100 µM, the TGI [6] was greater than 100 µM and the TGI [7] was 57.5 µM. It also gave a TGI [8] greater than 100 µM, a TGI [9] greater than 100 µM and a TGI [10] greater than 100 µM.
`COc1ccc(OC)c2c(C(C)=O)cccc12` gave a TGI [1] greater than 100 µM, a TGI [2] greater than 100 µM and a TGI [3] greater than 100 µM. For the same compound, the TGI [5] was greater than 100 µM, the TGI [6] was greater than 100 µM and the TGI [7] was greater than 100 µM. For the same compound, the TGI [8] was greater than 100 µM, the TGI [9] was greater than 100 µM and the TGI [10] was greater than 100 µM.
For `Oc1c(Br)cc2c(c1Br)-c1c(c(O)c3c4c1=NCCC=4C=N3)NCC2`, the TGI [1] was 28.7 µM, the TGI [2] was 27.2 µM and the TGI [3] was 34.3 µM. For the same compound, the TGI [6] was greater than 80.8 µM, the TGI [8] was 32.8 µM and the TGI [9] was 23.2 µM. The TGI [10] was 32.5 µM.
With `CN(C(=O)Cc1ccccc1)n1cn[n+](CC(=O)OC(C)(C)C)c1` the TGI [2] was greater than 10 µM, the TGI [3] was greater than 10 µM and the TGI [4] was greater than 10 µM. The TGI [5] was greater than 10 µM, the TGI [6] was greater than 10 µM and the TGI [7] was greater than 10 µM. The TGI [8] was greater than 10 µM, the TGI [9] was greater than 10 µM and the TGI [10] was greater than 10 µM.
For `CNC(=S)N/N=C/C(C)=N/NC(=S)NC`, the TGI [1] was greater than 100 µM, the TGI [2] was greater than 100 µM and the TGI [5] was greater than 100 µM. The TGI [6] was greater than 100 µM, the TGI [7] was greater than 100 µM and the TGI [9] was greater than 100 µM. It also gave a TGI [10] greater than 100 µM.
For `CSc1c(C(C)=O)c(O)n(-c2ccc(C)cc2)c(=O)c1C#N`, the TGI [1] was greater than 100 µM, the TGI [2] was greater than 100 µM and the TGI [3] was greater than 100 µM. The TGI [6] was greater than 100 µM, the TGI [7] was greater than 100 µM and the TGI [8] was greater than 100 µM. It also gave a TGI [9] greater than 100 µM and a TGI [10] greater than 100 µM.
In the case of `CO[C@@]12C[C@H](CNC(=O)c3ccc[nH]3)O[C@@H]1NC(=O)N2`, the TGI [2] is reported as greater than 100 µM, the TGI [3] is reported as greater than 100 µM and the TGI [5] is reported as greater than 100 µM. It also gave a TGI [6] greater than 100 µM, a TGI [7] greater than 100 µM and a TGI [8] greater than 100 µM. For the same compound, the TGI [9] was greater than 100 µM and the TGI [10] was greater than 100 µM.
`COCN1C(=O)[C@@H]2CCCN2C(=O)c2ccc(N)cc21` was tested, and the TGI [1] was greater than 100 µM, the TGI [2] was greater than 100 µM and the TGI [3] was greater than 100 µM. It also gave a TGI [4] greater than 100 µM, a TGI [5] greater than 100 µM and a TGI [6] greater than 100 µM. It also gave a TGI [8] greater than 100 µM, a TGI [9] greater than 100 µM and a TGI [10] greater than 100 µM.
`CC1CC(=O)N(N(C)C)C2(C#N)C(=O)N=C(N)C12C#N` (stereo not given) showed a TGI [1] greater than 100 µM, a TGI [2] greater than 100 µM and a TGI [3] greater than 100 µM. The TGI [4] was greater than 100 µM, the TGI [5] was greater than 100 µM and the TGI [6] was greater than 100 µM. The TGI [7] was greater than 100 µM and the TGI [9] was greater than 100 µM.
`CC(C)(C)OC(=O)Cn1ncn(NC(=O)Cc2ccccc2)c1=S` gave a TGI [2] greater than 10 µM, a TGI [3] greater than 10 µM and a TGI [4] greater than 10 µM. It also gave a TGI [5] greater than 10 µM, a TGI [6] greater than 10 µM and a TGI [7] greater than 10 µM. The TGI [9] was greater than 10 µM and the TGI [10] was greater than 10 µM.
